Patent publication US12600714B2, “Substituted pyrazinecarboxamide compounds for treating diseases related to EGFR mutation” (WIGEN BIOMEDICINE TECHNOLOGY (SHANGHAI) CO., LTD., priority 2020, dated 2026)

Key:
EGFR (del19/T790M/C797S) = assay: HTRF inhibitory activity assay against EGFR (del19/T790M/C797S) enzyme; format: biochemical
Summary of the method: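 Wild-type or mutant EGFR preincubated with serially diluted compound 10 min at 28 °C, then reacted 40 min at room temperature with biotinylated TK substrate and ATP. Phosphorylation detected by HTRF (Eu-cryptate anti-TK antibody, streptavidin-XL665, 60 min), 665/615 nm ratio; % inhibition and IC50 vs control.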

[1] = target: Ba/F3 (EGFR^del19/T790M/C797S) triple-mutant cells (Homo sapiens, UniProt P00533, T790M/C797S, cells depend on it, form not given); assay: Antiproliferative activity against Ba/F3 (EGFR del19/T790M/C797S) triple-mutant cells, Cell Titer Glow; format: cell-based; settings: three days after addition of compounds; read-out: Antiproliferative activity BaF3(EGFR^del19/T790M/C797S) IC50
Procedure: (§1) Antiproliferative Activity of the Compounds Disclosed Herein Against Ba/F3 (EGFR^del19/T790M/C797S) Triple-Mutant Cells and A431 (EGFR WT) Cells
(§2) • 3000 Ba/F3 cells carrying EGFR (del19/T790M/C797S) or 2000 A431 cells were seeded in a 384-well plate. After one day, serially diluted compounds were added (up to 500 nM for Ba/F3 cells and up to 10 μM for A431 cells). Three days after the addition of the compounds, Cell Titer Glow was added to evaluate cell growth and the percentage cell growth inhibition by the compounds and the IC50 values were calculated.

A431 (EGFR WT) cells = assay: Antiproliferative activity against A431 (EGFR WT) cells, Cell Titer Glow; format: cell-based; settings: Homo sapiens, A-431, 72 h; three days after addition of compounds; read-out: Antiproliferative activity A431 wild-type (WT) IC50
Procedure: as §1, §2

EGFR (L858R/T790M/C797S) = EGFR (L858R/T790M/C797S) (Homo sapiens, UniProt P00533, C797S/L858R/T790M); assay: HTRF inhibitory activity assay against EGFR (L858R/T790M/C797S) enzyme; format: biochemical; settings: read-out: EGFR (L858R/T790M/C797S) inhibition (%) (0.3 nM compound)
Procedure: Inhibitory Activity Assay of the Compounds Disclosed Herein Against EGFR (del19/T790M/C797S), EGFR (L858R/T790M/C797S) or EGFR (WT) Enzymes
The inhibitory effects of the compounds against EGFR (del19/T790M/C797S), EGFR (L858R/T790M/C797S) or EGFR (WT) enzyme activity was determined by using HTRF. The procedures are as follows:
The WT or mutant EGFR proteins were incubated with a serially diluted compounds at 28° C. for 10 min followed by addition of biotin-labeled general tyrosine kinase (TK) substrate and ATP. The mixture was incubated at room temperature for 40 min for reaction. After the termination of the reaction, an Eu3+-Cryptate-labeled antibody against TK and streptavidin-XL665 were added and the mixture was incubated at room temperature for 60 min. The luminescences at 615 nm and 665 nm were detected and the ratio of 665/615 was calculated to quantify the level of TK substrate phosphorylation. Inhibition % and IC50 of the compounds were calculated relative to the control group.

Ba/F3 (EGFR^del19/T790M/C797S) triple-mutant cells, sequence (P00533 with tags, fused parts or gaps DEL746-750/T790M/C797S, form open): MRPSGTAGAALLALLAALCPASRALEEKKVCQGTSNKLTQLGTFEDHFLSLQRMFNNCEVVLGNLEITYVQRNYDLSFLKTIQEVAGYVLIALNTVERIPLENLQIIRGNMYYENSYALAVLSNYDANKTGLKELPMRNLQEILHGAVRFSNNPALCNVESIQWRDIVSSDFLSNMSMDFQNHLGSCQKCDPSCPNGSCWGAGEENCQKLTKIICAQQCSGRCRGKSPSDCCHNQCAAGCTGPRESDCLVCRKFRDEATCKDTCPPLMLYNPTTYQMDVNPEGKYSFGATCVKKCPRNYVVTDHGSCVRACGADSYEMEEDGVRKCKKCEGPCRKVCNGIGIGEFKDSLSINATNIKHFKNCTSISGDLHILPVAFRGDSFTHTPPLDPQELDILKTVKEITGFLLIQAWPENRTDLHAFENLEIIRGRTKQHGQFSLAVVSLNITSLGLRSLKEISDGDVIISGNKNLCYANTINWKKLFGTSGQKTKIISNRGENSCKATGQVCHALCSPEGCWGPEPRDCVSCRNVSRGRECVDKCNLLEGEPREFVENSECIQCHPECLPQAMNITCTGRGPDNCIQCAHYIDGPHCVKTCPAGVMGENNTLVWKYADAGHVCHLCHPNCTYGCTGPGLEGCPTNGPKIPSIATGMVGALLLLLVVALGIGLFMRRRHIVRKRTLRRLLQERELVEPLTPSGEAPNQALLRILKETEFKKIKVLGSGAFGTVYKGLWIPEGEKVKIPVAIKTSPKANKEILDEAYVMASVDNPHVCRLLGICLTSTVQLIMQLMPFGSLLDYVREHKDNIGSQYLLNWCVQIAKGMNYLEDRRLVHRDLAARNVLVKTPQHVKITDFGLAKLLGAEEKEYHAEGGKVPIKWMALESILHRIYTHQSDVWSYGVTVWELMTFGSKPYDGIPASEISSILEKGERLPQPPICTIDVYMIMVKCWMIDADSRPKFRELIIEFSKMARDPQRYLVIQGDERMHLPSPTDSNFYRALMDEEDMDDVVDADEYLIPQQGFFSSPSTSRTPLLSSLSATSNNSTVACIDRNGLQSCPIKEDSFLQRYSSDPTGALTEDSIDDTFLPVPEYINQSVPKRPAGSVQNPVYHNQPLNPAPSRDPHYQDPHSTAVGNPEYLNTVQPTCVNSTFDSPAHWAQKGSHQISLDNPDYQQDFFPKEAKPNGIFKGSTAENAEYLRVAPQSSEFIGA
EGFR (L858R/T790M/C797S), sequence (P00533 25-1210 T790M/C797S/L858R): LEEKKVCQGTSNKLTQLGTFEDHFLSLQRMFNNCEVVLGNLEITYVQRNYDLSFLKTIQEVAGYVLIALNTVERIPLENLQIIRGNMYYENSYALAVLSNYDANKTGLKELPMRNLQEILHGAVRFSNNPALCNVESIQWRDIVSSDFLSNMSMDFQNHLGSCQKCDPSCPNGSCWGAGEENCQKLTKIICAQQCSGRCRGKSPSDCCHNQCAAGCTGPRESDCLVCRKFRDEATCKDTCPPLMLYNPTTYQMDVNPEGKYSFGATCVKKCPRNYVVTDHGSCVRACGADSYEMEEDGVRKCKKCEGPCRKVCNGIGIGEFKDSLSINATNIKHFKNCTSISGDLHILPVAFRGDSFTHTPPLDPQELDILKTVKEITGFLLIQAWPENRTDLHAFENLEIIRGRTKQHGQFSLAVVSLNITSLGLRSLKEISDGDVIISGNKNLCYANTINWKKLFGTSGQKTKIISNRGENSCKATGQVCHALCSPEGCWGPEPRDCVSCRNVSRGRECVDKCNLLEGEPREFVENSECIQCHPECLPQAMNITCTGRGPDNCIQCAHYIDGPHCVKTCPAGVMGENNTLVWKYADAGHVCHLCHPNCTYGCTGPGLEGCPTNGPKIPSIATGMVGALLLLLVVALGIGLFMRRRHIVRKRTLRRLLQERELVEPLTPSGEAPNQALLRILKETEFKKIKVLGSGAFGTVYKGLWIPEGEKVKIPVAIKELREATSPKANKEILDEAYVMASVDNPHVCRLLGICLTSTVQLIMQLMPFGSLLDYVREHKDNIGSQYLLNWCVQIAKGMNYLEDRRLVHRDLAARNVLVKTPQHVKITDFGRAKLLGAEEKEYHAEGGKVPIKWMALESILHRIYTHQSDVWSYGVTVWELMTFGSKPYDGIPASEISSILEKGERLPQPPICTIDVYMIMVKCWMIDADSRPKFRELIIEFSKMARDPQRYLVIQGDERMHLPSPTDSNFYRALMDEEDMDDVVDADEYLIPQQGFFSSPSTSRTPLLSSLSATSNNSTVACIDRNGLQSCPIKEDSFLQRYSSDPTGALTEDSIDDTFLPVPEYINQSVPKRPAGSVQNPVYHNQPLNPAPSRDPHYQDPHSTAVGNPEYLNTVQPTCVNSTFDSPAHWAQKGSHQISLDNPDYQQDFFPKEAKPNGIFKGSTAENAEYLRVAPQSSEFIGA

Structure (SMILES)	EGFR (del19/T790M/C797S) inhibition (%) (0.3 nM compound) (EGFR (del19/T790M/C797S))	GI50 [1] [nM]	IC50 (A431 (EGFR WT) cells) [nM]	inhibition at 0.0003 µM (EGFR (L858R/T790M/C797S)) [%]
CN1CCN(C2CCN(c3ccc(Nc4nc(N[C@H]5C[C@H](O)C5)c(-c5ccccc5)nc4C(N)=O)cc3)CC2)CC1 [compound 32]	+++ (+++ indicates an inhibition greater than 50%.)	26	190	
CC(C)Nc1nc(Nc2ccc(N3CCC(N4CCN(C)CC4)CC3)cc2)c(C(N)=O)nc1-c1cc[nH]n1 [compound 616]	+++ (+++ indicates an inhibition greater than 50%.)	32	360	
CN1CCN(C2CCN(c3ccc(Nc4nc(N[C@H]5C[C@H](O)C5)c(-c5cccc6[nH]ccc56)nc4C(N)=O)cc3)CC2)CC1 [compound 525]	+++ (+++ indicates an inhibition greater than 50%.)	25	60	
Cc1cc(Nc2nc(NC3CCOCC3)c(-c3cc[nH]n3)nc2C(N)=O)ccc1N1CCC(N2CCN(C)CC2)CC1 [compound 177]	++ (++ indicates an inhibition from 20% to 50%)	19	690	
CN1CCN(C2CCN(c3ccc(Nc4nc(NC5CCC5)c(-c5cccc6[nH]ccc56)nc4C(N)=O)cc3)CC2)CC1 [compound 523]	+++ (+++ indicates an inhibition greater than 50%.)			> 50
CN1CCN(C2CCN(c3ccc(Nc4nc(N[C@@H]5CCC[C@@H]5O)c(-c5cccc6[nH]ccc56)nc4C(N)=O)cc3)CC2)CC1 [compound 529]	+++ (+++ indicates an inhibition greater than 50%.)	18	50	
CN(C)c1ccc(Nc2nc(NC3CCOCC3)c(-c3ccncc3)nc2C(N)=O)cc1 [compound 124]	+ (+ indicates an inhibition less than or equal to 20%)	> 100	> 10000	
Cc1cc(-c2nc(C(N)=O)c(Nc3ccc(N4CCC(N5CCN(C)CC5)CC4)cc3)nc2NC2CCOCC2)ccn1 [compound 108]	+++ (+++ indicates an inhibition greater than 50%.)	23	190	
CN1CCN(C2CCN(c3ccc(Nc4nc(NC5CCOCC5)c(-c5cccs5)nc4C(N)=O)cc3)CC2)CC1 [compound 94]	++ (++ indicates an inhibition from 20% to 50%)			≤ 20
CN1CCN(C2CCN(c3ccc(Nc4nc(NC5CCOCC5)c(-c5ccnc6[nH]ccc56)nc4C(N)=O)cc3)CC2)CC1 [compound 512]	+++ (+++ indicates an inhibition greater than 50%.)	6	20	
CN1CCN(C2CCN(c3ccc(Nc4nc(NC5CCOCC5)c(-c5ccc(O)cc5)nc4C(N)=O)cc3)CC2)CC1 [compound 96]	++ (++ indicates an inhibition from 20% to 50%)	> 100	1600	
CN1CCN(C2CCN(c3ccc(Nc4nc(NC5CCOCC5)c(-c5cccnc5)nc4C(N)=O)cc3)CC2)CC1 [compound 37]	+ (+ indicates an inhibition less than or equal to 20%)	48	> 2000	
CN1CCN(C2CCN(c3ccc(Nc4nc(NC5CCOCC5)c(-c5ccco5)nc4C(N)=O)cc3)CC2)CC1 [compound 69]	+ (+ indicates an inhibition less than or equal to 20%)			≤ 20
CN1CCN(C2CCN(c3ccc(Nc4nc(NCCS(C)(=O)=O)c(-c5ccccc5)nc4C(N)=O)cc3)CC2)CC1 [compound 54]	+ (+ indicates an inhibition less than or equal to 20%)	> 100	3500	
CN1CCN(C2CCN(c3ccc(Nc4nc(NC5CCOCC5)c(-c5cccc(F)c5)nc4C(N)=O)cc3)CC2)CC1 [compound 60]	++ (++ indicates an inhibition from 20% to 50%)			≤ 20
CN1CCN(C2CCN(c3ccc(Nc4nc(NCC(C)(C)O)c(-c5cccc6[nH]ccc56)nc4C(N)=O)cc3)CC2)CC1 [compound 528]	+++ (+++ indicates an inhibition greater than 50%.)	13	70	

Structure (SMILES)	EGFR (del19/T790M/C797S) inhibition (%) (0.3 nM compound) (EGFR (del19/T790M/C797S))	GI50 [1] [nM]	IC50 (A431 (EGFR WT) cells) [nM]	inhibition at 0.0003 µM (EGFR (L858R/T790M/C797S)) [%]
CN1CCN(C2CCN(c3ccc(Nc4nc(NC5CCC5)c(-c5cccc6[nH]ccc56)nc4C(N)=O)cc3F)CC2)CC1 [compound 532]	+++ (+++ indicates an inhibition greater than 50%.)			> 50
CN1CCN(C2CCN(c3ccc(Nc4nc(NC5CC6(COC6)C5)c(-c5cccc6[nH]ccc56)nc4C(N)=O)cc3F)CC2)CC1 [compound 536]	+++ (+++ indicates an inhibition greater than 50%.)			> 50
Cc1c[nH]nc1-c1nc(C(N)=O)c(Nc2ccc(N3CCC(N4CCN(C)CC4)CC3)cc2)nc1NC1CCOCC1 [compound 111]	+ (+ indicates an inhibition less than or equal to 20%)	105	120	
CN1CCN(C2CCN(c3ccc(Nc4nc(N[C@H]5CC[C@H](O)CC5)c(-c5cccc6[nH]ccc56)nc4C(N)=O)cc3F)CC2)CC1 [compound 535]	+++ (+++ indicates an inhibition greater than 50%.)			> 50
CN1CCN(C2CCN(c3ccc(Nc4nc(NC5CCOCC5)c(-c5ccncc5)nc4C(N)=O)cc3F)CC2)CC1 [compound 122]	+++ (+++ indicates an inhibition greater than 50%.)	40	380	
Cc1n[nH]cc1-c1nc(C(N)=O)c(Nc2ccc(N3CCC(N4CCN(C)CC4)CC3)cc2)nc1NC1CCOCC1 [compound 110]	+ (+ indicates an inhibition less than or equal to 20%)	> 100	460	
CN1CCN(C2CCN(c3ccc(Nc4nc(N[C@@H]5CC[C@@H](O)C5)c(-c5ccccc5)nc4C(N)=O)cc3)CC2)CC1 [compound 137, 5-(((1R,3R)-3-hydroxycyclopentyl)amino)-3-((4-(4-(4-methylpiperazin-1-yl)piperidin-1-yl)phenyl)amino)-6-phenylpyrazine-2-carboxamide]	++ (++ indicates an inhibition from 20% to 50%)			20 to 50
CN1CCN(C2CCN(c3ccc(Nc4nc(NC5CCOCC5)c(-c5cccc6[nH]ccc56)nc4C(N)=O)cc3F)CC2)CC1 [compound 519]	+++ (+++ indicates an inhibition greater than 50%.)			> 50
CC(C)Nc1nc(Nc2ccc(N3CCC(N4CCN(C)CC4)CC3)cc2)c(C(N)=O)nc1-c1ccncc1 [compound 611]	+++ (+++ indicates an inhibition greater than 50%.)	21	360	
CN1CCN(C2CCN(c3ccc(Nc4nc(N[C@@H]5CCC[C@H](O)C5)c(-c5ccccc5)nc4C(N)=O)cc3)CC2)CC1 [compound 141]		27	230	
NC(=O)c1nc(-c2ccncc2)c(NC2CCOCC2)nc1Nc1ccc(CN2CCOCC2)cc1 [compound 123]	++ (++ indicates an inhibition from 20% to 50%)	140	> 10000	
NC(=O)c1nc(-c2ccncc2)c(NC2CCOCC2)nc1Nc1ccccc1 [compound 119]	+ (+ indicates an inhibition less than or equal to 20%)	> 100	> 10000	
CN1CCN(C2CCN(c3ccc(Nc4nc(N[C@H]5C[C@@H](O)C5)c(-c5ccccc5)nc4C(N)=O)cc3)CC2)CC1 [compound 31]	+++ (+++ indicates an inhibition greater than 50%.)	65	540	
CN1CCN(Cc2ccc(Nc3nc(NC4CCOCC4)c(-c4ccncc4)nc3C(N)=O)cc2)CC1 [compound 120]	+ (+ indicates an inhibition less than or equal to 20%)	119	680	
CN1CCN(c2ccc(Nc3nc(NC4CCOCC4)c(-c4ccncc4)nc3C(N)=O)cc2)CC1 [compound 118]	++ (++ indicates an inhibition from 20% to 50%)	82	4100	
